IC50 data for 18 compounds are collected here from patent US12624034B2, “Non-covalent modifiers of AKT1 and uses thereof” (Terremoto Biosciences, Inc., priority 2023, dated 2026).

Like-named read-outs stand apart in the source and are kept apart here.

One test has as its target T1, AKT1 WT (Homo sapiens, UniProt P31749).
T1 construct: expressed in transfected cells; host or cells: HEK293
The test is described as follows: Live cell AKT1 WT target engagement by NanoBRET competitive probe displacement in HEK293 cells. The format is binding. Particulars: 2 h at 37° C., read-out: AKT1 WT IC50.

Another test deals with T2, AKT2 (Homo sapiens, UniProt P31751).
T2 construct: expressed in transfected cells; host or cells: HEK293
T2 sequence (P31751 whole entry): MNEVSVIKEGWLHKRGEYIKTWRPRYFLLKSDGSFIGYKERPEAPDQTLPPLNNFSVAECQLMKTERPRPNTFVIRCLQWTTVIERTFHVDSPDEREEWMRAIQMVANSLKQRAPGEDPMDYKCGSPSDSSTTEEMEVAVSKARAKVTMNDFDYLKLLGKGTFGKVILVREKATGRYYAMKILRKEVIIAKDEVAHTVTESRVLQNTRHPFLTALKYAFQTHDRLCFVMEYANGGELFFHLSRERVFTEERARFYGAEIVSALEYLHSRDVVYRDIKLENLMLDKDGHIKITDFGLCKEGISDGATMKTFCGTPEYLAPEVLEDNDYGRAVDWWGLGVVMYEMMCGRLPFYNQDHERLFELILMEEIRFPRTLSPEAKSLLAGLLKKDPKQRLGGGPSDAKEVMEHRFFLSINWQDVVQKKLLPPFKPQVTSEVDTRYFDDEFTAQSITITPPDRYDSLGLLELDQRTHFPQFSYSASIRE
The test is described as follows: Live cell AKT2 target engagement by NanoBRET competitive probe displacement in HEK293 cells. It counts as binding. Particulars: 2 h at 37° C., read-out: AKT2 IC50. A general note: BRET reads energy transfer from a luciferase to a nearby fluorophore.

[1] abbreviates: NanoBRET live cell target engagement, HEK293 cells.
Where [2] appears, read: NanoBRET competitive probe displacement, live HEK293 cells.

T1 sequence (P31749 whole entry): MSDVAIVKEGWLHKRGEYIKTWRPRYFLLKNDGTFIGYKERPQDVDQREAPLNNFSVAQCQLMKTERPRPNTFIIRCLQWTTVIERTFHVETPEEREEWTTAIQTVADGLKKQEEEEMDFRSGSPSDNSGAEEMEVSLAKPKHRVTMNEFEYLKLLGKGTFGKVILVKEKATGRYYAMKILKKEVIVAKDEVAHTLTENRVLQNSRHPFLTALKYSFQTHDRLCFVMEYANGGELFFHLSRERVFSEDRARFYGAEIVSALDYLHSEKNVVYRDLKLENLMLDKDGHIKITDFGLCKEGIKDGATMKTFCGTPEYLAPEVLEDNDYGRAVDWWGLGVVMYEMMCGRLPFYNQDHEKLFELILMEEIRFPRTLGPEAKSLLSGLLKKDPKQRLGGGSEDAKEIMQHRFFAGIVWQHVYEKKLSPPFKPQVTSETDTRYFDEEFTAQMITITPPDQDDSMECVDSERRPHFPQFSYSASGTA

For `Nc1ncccc1-c1nc2ccc(-n3cccn3)nc2n1-c1ccc2c(c1)CC[C@@H]2NC(=O)c1ccc2[nH]c(=O)oc2c1` [Compound 191], the values for the IC50 at AKT1 WT (setting [1]) and on AKT2 (setting [1]) were 9.23 nM and 78.6 nM, respectively.

With `Cc1cc2c(=O)n([C@H]3CCc4cc(-n5c(-c6cccnc6N)nc6ccc(-n7cccn7)nc65)ccc43)cnc2cn1` [Compound 81, (S)-3-(5-(2-(2-aminopyridin-3-yl)-5-(1H-pyrazol-1-yl)-3H-imidazo[4,5-b]pyridin-3-yl)-2,3-dihydro-1H-inden-1-yl)-6-methylpyrido[3,4-d]pyrimidin-4(3H)-one], the figures for the 50% inhibitory concentration (IC50) on AKT1 WT (setting [1]) and at AKT2 (setting [1]) were 121 nM and 2900 nM, respectively.

Take `Nc1ncccc1-c1nc2ccc(C#CC3CC3)nc2n1-c1ccc2c(c1)CC[C@@H]2n1cnnc1` [Compound 528]: the IC50 on AKT1 WT (setting [2]) came out at 17.2 nM; on AKT2 (setting [2]) it was 320 nM.

Consider `Cc1nc(C(F)F)sc1C(=O)N[C@H]1CCc2cc(-n3c(-c4cccnc4N)nc4ccc(-n5nccn5)nc43)ccc21` [Compound 541], for which the IC50 at AKT1 WT (setting [2]) was determined as 5.46 nM; at AKT2 (setting [2]), 556 nM.

`Nc1ncccc1-c1nc2ccc(-c3ccn(C(F)F)n3)nc2n1-c1ccc2c(c1)CC[C@@H]2NC(=O)c1ccc(C(F)(F)F)nc1` [Compound 421]: the IC50 on AKT1 WT (setting [2]) was 3.52 nM; on AKT2 (setting [2]) it was 37.9 nM.

On to `Nc1ncccc1-c1nc2ccc(-c3cnccn3)nc2n1-c1ccc2c(c1)CC[C@@H]2NC1CCN(C(=O)C2CC2)CC1` [Compound 556], for which the IC50 on AKT1 WT (setting [2]) was 124 nM; on AKT2 (setting [2]) it was 1330 nM.

Consider `Cc1ncc(C(=O)N[C@H]2CCc3cc(-n4c(-c5cccnc5N)nc5ccc(-n6nccn6)nc54)ccc32)c(C)n1` [Compound 92], for which the IC50 at AKT1 WT (setting [1]) is 42.8 nM; on AKT2 (setting [1]), 1140 nM.

Consider `COc1cc(C(=O)N[C@H]2CCc3cc(-n4c(-c5cccnc5N)nc5ccc(-n6cccn6)nc54)ccc32)ccc1O` [Compound 260], for which the figures for the IC50 on AKT1 WT (setting [1]) and on AKT2 (setting [1]) were 7.55 nM and 164 nM, respectively.

Turning to `O=C(C1CC1)N1CCC(N[C@@H]2c3ccc(-n4c(-c5ccccc5F)nc5ccc(-n6ccc(N7CCOCC7)n6)nc54)cc3CC2F)CC1` (stereo partly drawn) [Compound 572], the IC50 at AKT1 WT (setting [2]) worked out at 16.1 nM; at AKT2 (setting [2]), 945 nM.

`Nc1ncccc1-c1nc2ccc(-n3cccn3)nc2n1-c1ccc2c(c1)CC[C@@H]2NC1CC2(CCCN(c3ccccn3)C2)C1` (stereo partly drawn) [Compound 468]: the IC50 at AKT1 WT (setting [2]) is 74.7 nM; at AKT2 (setting [2]), 1960 nM.

In the case of `Nc1ncccc1-c1nc2ccc(-n3cccn3)nc2n1-c1ccc2c(c1)CC[C@@H]2NC1CCCc2ccncc21` (stereo partly drawn) [Compound 502], the IC50 is 134 nM on AKT1 WT (setting [2]) and 2090 nM at AKT2 (setting [2]).

As for `Nc1ncccc1-c1nc2ccc(-n3cccn3)nc2n1-c1ccc2c(c1)CC[C@@H]2NC1Cc2cccnc2C1` (stereo partly drawn) [Compound 531], the IC50 on AKT1 WT (setting [2]) stood at 50.6 nM; on AKT2 (setting [2]), 1280 nM.

Take `COC1CCN(c2ccn(-c3ccc4nc(-c5cccnc5N)n(-c5ccc6c(c5)CC[C@@H]6NC5CCN(C(=O)C6CC6)CC5)c4n3)n2)CC1` [Compound 564]: the IC50 on AKT1 WT (setting [2]) turned out to be 2.28 nM; at AKT2 (setting [2]), 84.4 nM.

Take `Nc1ncccc1-c1nc2ccc(-n3cccn3)nc2n1-c1ccc2c(c1)CC[C@@H]2n1cc(-c2ccccn2)nn1` [Compound 200]: the figures for the IC50 at AKT1 WT (setting [1]) and on AKT2 (setting [1]) were 14.7 nM and 212 nM, respectively.

For the compound `Nc1ncccc1-c1nc2ccc(-n3cccn3)nc2n1-c1ccc2c(c1)CC[C@@H]2NC(=O)c1ccc(F)c(O)c1` [Compound 293], the values for the IC50 on AKT1 WT (setting [1]) and on AKT2 (setting [1]) were 12.3 nM and 83.8 nM, respectively.

For the compound `Nc1ncccc1-c1nc2ccc(-n3ccc(N4CCC4)n3)nc2n1-c1ccc2c(c1)CC[C@@H]2NC1CCN(C(=O)C2CC2)CC1` [Compound 562], the IC50 on AKT1 WT (setting [2]) amounted to 9.77 nM; on AKT2 (setting [2]), 430 nM.

Regarding `CN1Cc2cc(C(=O)N[C@H]3CCc4cc(-n5c(-c6cccnc6N)nc6ccc(-n7cccn7)nc65)ccc43)cnc2C1` [Compound 112], the IC50 at AKT1 WT (setting [1]) amounted to 9.53 nM; at AKT2 (setting [1]), 52.7 nM.

As to `Nc1ncccc1-c1nc2ccc(-n3ccc(Oc4cccnc4)n3)nc2n1-c1ccc2c(c1)CC[C@@H]2NC1CCN(C(=O)C2CC2)CC1` [Compound 568], the figures for the IC50 on AKT1 WT (setting [2]) and at AKT2 (setting [2]) were 8.72 nM and 458 nM, respectively.

The IC50 is the concentration needed to halve the response being measured.
